Patent EP0066918A1 (THE PROCTER & GAMBLE COMPANY, priority 1981, dated 1982)
Values joined by “and” are separate entries in the source; they are usually repeats but may differ in a detail not shown here. Equal entries are not always repeated. Values belong to the compound of their own block, whether it stands above or below them.

Key:
[1] = Toxicity (statement only, no method given); conditions: no data given
[2] = tested on: aspirin-induced gastric lesions; experiment: animal or person; assay type: in vivo, Male Sprague-Dawley rats; conditions: for inhibition in vivo at 125 mg/kg: Rattus norvegicus, po, 2 h, purine derivative dose 125 mg/kg with 125 mg/kg aspirin, read-out: % Reduction in Lesions; for minimization of gastric damage (statement in words): general statement in the description, high dosage = anti-inflammatory:purine ratios from about 1:1.5 to about 1:4; for reduction in lesions / lesion reduction: both 125 mg/kg
Procedure: For these experiments, the test materials were suspended in 0.5% methyl cellulose aqueous solutions. The pH of the aspirin solution was 2.7 and the pH of the solutions containing the purine materials was adjusted to pH 2.7 using HC1.
Male Sprague-Dawley rats were obtained (approximate weight = 150 grams each) and allowed to acclimate for at least 4 days. During this period the animals were allowed Purina Rat Chow and,tap water ad libitum. The animals were food fasted about 18 hours prior to dosing; during this period water was provided ad libitum.
The rats were dosed by oral gavage using a #8 catheter attached to a 1 cc syringe. The animals were dosed and sacrificed according to a predetermined schedule (the dosing order was determined at random prior to starting each experiment). After dosing, the animals were also water fasted.
The rats were sacrificed, either by C02 inhalation or cervical dislocation, two hours after dosing. Their stomachs were removed intact and placed on plastic-backed absorbent paper. The stomachs were then opened along the greater curvature, the fundus and esophagus were removed and the stomach was spread over a piece of white cardboard, using cotton-tipped applicators to level the rugae. The stomachs were then examined, using a dissecting microscope at 7X magnification, and the length of each lesion present was determined using a calibrated reticule.
In this table, N indicates the number of rats tested for the stated dosage.
In other experiments aspirin and adenosine were dosed at separate times.

[3] = tested on: occult blood loss from the G.I. tract; experiment: Occult blood loss from the G.I. tract of rats (Fe labeled ferrous citrate, 24 h feces collection); assay type: in vivo, male Sprague-Dawley rats; conditions: Adenosine 0, oral
Procedure: In addition to reducing macroscopic lesions in the stomach produced by aspirin ingestion, adenosine was also found to reduce occult blood loss from the G.I. tract of rats. In these experiments, male Sprague-Dawley rats were injected i.v. with […] Fe labeled ferrous citrate. Eight days after injection, feces were collected for 24 hours to establish base line data. The rats were then dosed orally with aspirin or aspirin-adenosine mixtures, as suspensions in 0.5% methylcellulose, and the feces were again collected for 24 hours. The rats were fasted during the 24-hour pre- dose period and for 2 hours after drug dosing.

[4] = tested on: aspirin-induced gastric damage; experiment: Aspirin-induced gastric lesions in rats, adenosine injected i.p. 15 minutes prior to oral aspirin; assay type: in vivo; conditions: 125 mg/kg aspirin (p.o.) alone
Procedure: Parenteral administration of adenosine was also found to be protective against aspirin-induced gastric damage, as illustrated by the following experiment.
Rats, chosen and prepared as. above, were dosed with i.p. injections of adenosine in 0.9% sterile physiological saline solution, adjusted to pH 7 with IN NaOH. The adenosine solution was injected 15 minutes prior to an oral dose of 125 mg/kg aspirin.

[5] = tested on: Aspirin-induced damage in dogs; experiment: Aspirin-induced gastric damage in dogs, endoscopy; assay type: in vivo, male beagles; conditions: avg. dose aspirin 97.8-101 mg/kg, adenosine 100 mg/kg simultaneously, cimetidine 30 mg/kg about 1 hour before
Procedure: Fasted male beagles were orally dosed with tablets of aspirin, aspirin plus adenosine, or aspirin plus cimetidine. The aspirin and adenosine were dosed simultaneously. The cimetidine was dosed approximately 1 hour before the aspirin; the dose level of cimetidine was 5 times that needed to give a 90% reduction in acid secretion. Approximately 19 hours later, the dogs were again dosed and 4 hours later their stomachs were examined by endoscopy. The incidence of erosions was recorded and the overall gastric damage assessed subjectively, using an arbitrary grading scale.

SMILES: Nc1ncnc2nc[nH]c12 [Adenine]
toxicity limits (statement in words) [1]: does not fall within the necessary toxicity limits | inhibition in vivo at 125 mg/kg ([2]; vs aspirin-alone control): 94% | minimization of gastric damage (statement in words) [2]: does work to minimize gastrointestinal damage

SMILES: Nc1ncnc2c1ncn2[C@H]1C[C@H](O)[C@@H](CO)O1 [2'-deoxyadenosine]
inhibition in vivo at 125 mg/kg ([2]; vs aspirin-alone control): 64%

SMILES: Nc1c2ncn([C@@H]3O[C@H](CO)[C@@H](O)[C@H]3O)c2nc[n+]1[O-] [Adenosine-N^1-oxide, adenosine-N^1-oxide]
inhibition in vivo at 125 mg/kg ([2]; vs aspirin-alone control): 75%

SMILES: OC[C@H]1O[C@@H](n2cnc3c2ncn2ccnc32)[C@H](O)[C@@H]1O [1,N^6-ethenoadenosine]
inhibition in vivo at 125 mg/kg ([2]; vs aspirin-alone control): 50% | minimization of gastric damage (statement in words) [2]: work only at relatively high dosage levels

SMILES: Nc1ncnc2c1nnn2[C@@H]1O[C@H](CO)[C@@H](O)[C@H]1O [8-azaadenosine]
inhibition in vivo at 125 mg/kg ([2]; vs aspirin-alone control): 60%

Blood Loss in 24 hrs. (µl) + S.D. ([3]; Aspirin 125 mg/kg): 158 ± 46 µL | Blood Loss in 24 hrs. (µl) + S.D. ([3]; Aspirin 300 mg/kg): 198 ± 131 µL and 224 ± 98 µL | Lesion Length (mm) ± SEM ([2]; 125 mg/kg aspirin alone (control), oral, 2 h after dosing): 30.4 ±3.1 mm
SMILES: CC(=O)Oc1ccccc1C(=O)O [Aspirin, acetylsalicylic acid]
Average Lesion Length (mm) ±SEM [4]: 36.1 ±10.8 mm | Avg. Damage Grade ([5]; arbitrary subjective grading scale): 16 | Avg. In-cidence of Erosions ([5]; oral tablets, two doses about 19 h apart, endoscopy 4 h after second): 80%

SMILES: Nc1nc2nc[nH]c2c(=O)[nH]1 [guanine]
minimization of gastric damage (statement in words) [2]: not useful

SMILES: OC[C@H]1O[C@@H](n2cnc3c(O)ncnc32)[C@H](O)[C@@H]1O [Inosine]
inhibition in vivo at 125 mg/kg ([2]; vs aspirin-alone control): 18%

SMILES: CSC[C@H]1O[C@@H](n2cnc3c(N)ncnc32)[C@H](O)[C@@H]1O [5'-deoxy-5'-methylthioadenosine]
inhibition in vivo at 125 mg/kg ([2]; vs aspirin-alone control): -102%

SMILES: Nc1ncnc2c1ncn2[C@@H]1O[C@H](COP(=O)(O)OP(=O)(O)O)[C@@H](O)[C@H]1O [Adenosine-5'-diphosphate (ADP), adenosine-5'-diphosphate]
inhibition in vivo at 125 mg/kg ([2]; vs aspirin-alone control): 50% | minimization of gastric damage (statement in words) [2]: work only at relatively high dosage levels

SMILES: Nc1ncnc2c1nc(Br)n2[C@@H]1O[C@H](CO)[C@@H](O)[C@H]1O [8-bromoadenosine]
inhibition in vivo at 125 mg/kg ([2]; vs aspirin-alone control): 76%

SMILES: NC(=O)NC1NC(=O)NC1=O (stereo not drawn) [Allantoin]
inhibition in vivo at 125 mg/kg ([2]; vs aspirin-alone control): 30%

SMILES: Cn1cnc2c(ncn2[C@@H]2O[C@H](CO)[C@@H](O)[C@H]2O)c1=N [1-methyl adenosine]
% Reduction in Lesions ([2]; purine derivative dose 25 mg/kg with 125 mg/kg aspirin, vs aspirin-alone control): 16%

SMILES: Nc1ncnc2c1ncn2[C@@H]1O[C@H](CO)C[C@H]1O [3'-deoxyadenosine]
inhibition in vivo at 125 mg/kg ([2]; vs aspirin-alone control): -47%

SMILES: Nc1ncnc2c1ncn2[C@@H]1O[C@H](CO)[C@@H](O)[C@H]1O [adenosine]
reduction in lesions ([2]; adenosine dosed 10 minutes after aspirin): < 10% | lesion reduction ([2]; adenosine dosed 10 minutes prior to aspirin): about 60% | lesion reduction ([2]; adenosine dosed 30 minutes prior to aspirin): about 45% | reduction in lesions ([2]; adenosine dosed simultaneously with aspirin): about 90%

SMILES: O=c1[nH]cnc2nc[nH]c12 [Hypoxanthine]
inhibition in vivo at 125 mg/kg ([2]; vs aspirin-alone control): 13%

SMILES: Nc1ncnc2c1ncn2[C@H]1C[C@H](O)[C@@H](COP(=O)(O)O)O1 [2'-deoxy-adenosine-5'-mono-phosphate]
inhibition in vivo at 125 mg/kg ([2]; vs aspirin-alone control): 16%

SMILES: Nc1ncnc2c1ncn2[C@@H]1O[C@H](COP(=O)(O)OP(=O)(O)OP(=O)(O)O)[C@@H](O)[C@H]1O [Adenosine-5'-triphosphonate (ATP), adenosine-5'-triphosphate]
minimization of gastric damage (statement in words) [2]: work only at relatively high dosage levels

SMILES: CC1(C)O[C@@H]2[C@H](O1)[C@@H](CO)O[C@H]2n1cnc2c(N)ncnc21 [2',3'-isopropylidine adenosine]
inhibition in vivo at 125 mg/kg ([2]; vs aspirin-alone control): 95%

SMILES: Nc1nc2c(ncn2[C@@H]2O[C@H](CO)[C@@H](O)[C@H]2O)c(=O)[nH]1 [Guanosine]
inhibition in vivo at 125 mg/kg ([2]; vs aspirin-alone control): 41% | minimization of gastric damage (statement in words) [2]: not useful
